Experimental data taken from PubChem BioAssay AID1259408 (Genetic Toxicology Data Bank (GENE-TOX), 2018).
Active and inactive are the calls of the source. The rule behind the calls is not given here.

Test system: GENE-TOX genotoxicity assays, various organisms and cells
Test: GENE-TOX mutagenicity studies
Conditions: for call: Assay Type: In vivo carcinogenicity studies, Assay Code: CCG+
[1] = Species/Cell Type: Nonhuman, Evaluation Type: Evaluation A (Pre-1980)
[2] = Species/Cell Type: Vicia faba, Assay Type: Chromosome aberrations, Assay Code: VIC+, Evaluation Type: Evaluation A (Pre-1980)

With Cc1c(N)nc(C)c2c1[nH]c1ccccc12 the mutagenic call (Species/Cell Type: Human lymphocytes, Assay Type: Sister-chromatid exchange (SCE) in vitro, Assay Code: SCL+D, Dose Response: With dose response, Evaluation Type: Evaluation B (Post-1980)) was “active; positive”, the mutagenic call (Species/Cell Type: Human, Assay Type: Sister-chromatid exchange (SCE) in vitro, Assay Code: SC1+D, Dose Response: With dose response, Evaluation Type: Evaluation B (Post-1980)) was “active; positive” and the call [1] was “active; positive”. For the same molecule, the mutagenic call (Species/Cell Type: Salmonella typhimurium (one or more of the five standard strains: TA98, TA100, TA1535, TA1537, and TA1538), Assay Type: Histidine reverse gene mutation, Ames assay, Assay Code: SAL+*, Activation: With metabolic activation, Evaluation Type: Evaluation A (Pre-1980)) was “active; positive” and the mutagenic call (Species/Cell Type: Syrian hamster embryo (SHE) cells, Assay Type: Cell transformation, clonal assay, Assay Code: CTC+, Evaluation Type: Evaluation A (Pre-1980)) was “active; positive”.

In the case of C[C@@H]1C(=O)OCC2=CCN3CC[C@@H](OC(=O)[C@@H](C)[C@@]1(C)O)[C@@H]23, the mutagenic call (Species/Cell Type: Drosophila melanogaster, Assay Type: Sex-linked recessive lethal gene mutation, Assay Code: SRL+, Evaluation Type: Evaluation A (Pre-1980)) is reported as “active; positive” and the mutagenic call (Species/Cell Type: Drosophila melanogaster, Sex: Male, Assay Type: Heritable translocation test, chromosome aberrations, Assay Code: DHT+, Evaluation Type: Evaluation A (Pre-1980)) is reported as “active; positive”.

In the case of CCCCCCCCCCCC(=O)N(C)N=O, the mutagenic call (Species/Cell Type: Saccharomyces cerevisiae, Assay Type: Reverse gene mutation, Assay Code: YER+, Evaluation Type: Evaluation A (Pre-1980)) is reported as “active; positive”.

In the case of CCNc1nc(Cl)nc(NC(C)C)n1, the mutagenic call (Species/Cell Type: Aspergillus nidulans, Assay Type: Reverse gene mutation, Assay Code: ASR+*, Activation: With metabolic activation, Evaluation Type: Evaluation A (Pre-1980)) is reported as “active; positive”, the mutagenic call (Species/Cell Type: Drosophila melanogaster, Assay Type: Aneuploidy, sex chromosome gain, chromosome aberrations, Assay Code: DAGT, Evaluation Type: Evaluation A (Pre-1980)) is reported as “no conclusion” and the mutagenic call (Species/Cell Type: Drosophila melanogaster, Assay Type: Aneuploidy, whole sex chromosome loss, chromosome aberrations, Assay Code: DACT, Evaluation Type: Evaluation A (Pre-1980)) is reported as “no conclusion”. The mutagenic call (Species/Cell Type: Drosophila melanogaster, Assay Type: Sex-linked recessive lethal gene mutation, Assay Code: SRLT, Evaluation Type: Evaluation A (Pre-1980)) was “no conclusion”, the mutagenic call (Species/Cell Type: Hordeum vulgare (barley), Assay Type: Chromosome aberrations, Assay Code: HOC+, Evaluation Type: Evaluation A (Pre-1980)) was “active; positive” and the mutagenic call (Species/Cell Type: Neurospora crassa, Assay Type: Aneuploidy, chromosome aberrations, Assay Code: NEN-, Evaluation Type: Evaluation A (Pre-1980)) was “inactive; negative”. The mutagenic call (Species/Cell Type: Saccharomyces cerevisiae, Assay Type: Mitotic recombination or gene conversion, Assay Code: YEC+*, Activation: With metabolic activation, Evaluation Type: Evaluation A (Pre-1980)) was “active; positive”, the mutagenic call (Species/Cell Type: Tradescantia species, Assay Type: Gene mutation, Assay Code: TRM-, Evaluation Type: Evaluation A (Pre-1980)) was “inactive; negative” and the mutagenic call [2] was “active; positive”. For the same molecule, the mutagenic call (Species/Cell Type: Zea mays (corn), Assay Type: Gene mutation, Assay Code: ZEM+F, Evaluation Type: Evaluation A (Pre-1980)) was “active; positive”.

For C(CCC1CO1)CC1CO1 (centres undefined), the mutagenic call (Species/Cell Type: Neurospora crassa, Assay Type: Forward gene mutation, Assay Code: NEF+, Evaluation Type: Evaluation A (Pre-1980)) was “active; positive” and the mutagenic call (Species/Cell Type: Salmonella typhimurium (one or more of the five standard strains: TA98, TA100, TA1535, TA1537, and TA1538), Assay Type: Histidine reverse gene mutation, Ames assay, Assay Code: SAL+, Evaluation Type: Evaluation A (Pre-1980)) was “active; positive”.

For O=C(O)CN(CC(=O)O)CC(=O)O, the mutagenic call (Species/Cell Type: Drosophila melanogaster, Assay Type: Sex-linked recessive lethal gene mutation, Assay Code: SRL-, Evaluation Type: Evaluation A (Pre-1980)) was “inactive; negative”, the mutagenic call (Species/Cell Type: Mouse, Sex: Male, Assay Type: Heritable translocation test, chromosome aberrations, Assay Code: HTT-, Evaluation Type: Evaluation A (Pre-1980)) was “inactive; negative” and the call [1] was “active; positive”. For the same molecule, the mutagenic call (Species/Cell Type: Nonhuman, Assay Type: Sister-chromatid exchange (SCE) in vitro, Assay Code: SC2T, Evaluation Type: Evaluation B (Post-1980)) was “no conclusion”, the mutagenic call (Species/Cell Type: Salmonella typhimurium (one or more of the five standard strains: TA98, TA100, TA1535, TA1537, and TA1538), Assay Type: Histidine reverse gene mutation, Ames assay, Assay Code: SALT, Evaluation Type: Evaluation B (Post-1980)) was “no conclusion” and the mutagenic call [2] was “active; positive”.

With CC=O the mutagenic call (Species/Cell Type: Escherichia coli polA (W3119 vs P3478), Assay Type: Rec-assay, DNA effects (bacterial DNA repair), Assay Code: RE1+, Evaluation Type: Evaluation A (Pre-1980)) was “active; positive”, the mutagenic call (Species/Cell Type: Human lymphocytes, Assay Type: Sister-chromatid exchange (SCE) in vitro, Assay Code: SCL+D, Dose Response: With dose response, Evaluation Type: Evaluation A (Pre-1980)) was “active; positive” and the mutagenic call (Species/Cell Type: Human, Assay Type: Sister-chromatid exchange (SCE) in vitro, Assay Code: SC1+D, Dose Response: With dose response, Evaluation Type: Evaluation A (Pre-1980)) was “active; positive”. For the same molecule, the mutagenic call (Species/Cell Type: Nonhuman, Assay Type: Sister-chromatid exchange (SCE) in vitro, Assay Code: SC2+, Evaluation Type: Evaluation A (Pre-1980)) was “active; positive” and the mutagenic call (Species/Cell Type: Nonhuman, Assay Type: Sister-chromatid exchange (SCE) in vivo, Assay Code: SC3+D, Dose Response: With dose response, Evaluation Type: Evaluation B (Post-1980)) was “active; positive”.

For CCN(Cc1cccc(S(=O)(=O)O)c1)c1ccc(C(=C2C=CC(=[N+](CC)Cc3cccc(S(=O)(=O)[O-])c3)C=C2)c2ccc(S(=O)(=O)O)cc2)cc1, the mutagenic call (Species/Cell Type: Bacillus subtilis (H17 vs M45), Assay Type: Rec-assay, spot test, DNA effects (bacterial DNA repair), Assay Code: REWT, Evaluation Type: Evaluation A (Pre-1980)) was “no conclusion”, the mutagenic call (Species/Cell Type: Bacillus subtilis (H17 vs M45T), Assay Type: Rec-assay, spot test, DNA effects (bacterial DNA repair), Assay Code: REXT, Evaluation Type: Evaluation A (Pre-1980)) was “no conclusion” and the mutagenic call (Species/Cell Type: Salmonella typhimurium (one or more of the five standard strains: TA98, TA100, TA1535, TA1537, and TA1538), Assay Type: Histidine reverse gene mutation, Ames assay, Assay Code: SAL-, Evaluation Type: Evaluation A (Pre-1980)) was “inactive; negative”.
